Data as given in patent US8183292B2, “Chiral cyclic β-amino acids and their derivatives, pharmaceutical compositions containing them and the use of such compounds” (BioBlocks Magyarorszag Gyogyszerkemiai es Fejleszto Kft., priority 2006, dated 2012).
Each block holds one molecule with its values, some of them ahead of it.

What was measured:
[1] = system: MRC-5 human fibroblast cell lines; assay: Cytotoxicity on MRC-5 human fibroblast cell lines (Alamar Blue/resazurine, 24 h); type: cell-based; conditions: MRC-5 cells, 24 hours incubation, 1% DMSO
Procedure: The toxic effect of the compounds was measured on MRC-5 human fibroblast cell lines in accordance with the method that has been described in the article published by Molnár et al. [L. Molnár, G. M. Keserü, Á. Papp, Z. Lörincz, G. Ambrus és F. Darvas.: A neural network based classification scheme for cytotoxicity predictions: Validation on 30,000 compounds, Bioorg. Med. Chem. Lett. 16(4), 1037-9 (2006)]. The cells were incubated for a cell cycle (24 hours) with solutions of various concentrations prepared from the compounds, in the presence of 1% of DMSO. 3 parallel measurements were carried out with 6 different concentrations. The ratio of the viable cells was determined by reducing the Alamaar Blue (resazurine) reagent that was followed fluorimetrically. The measured materials were not toxic on the given cell line in a concentration of 128 μmol after incubation for one day.
In the following Table 1 the cytotoxicity of some compounds according to the invention is given.

[2] = system: P-glycoprotein; assay: Reversal of multidrug resistance: rhodamine 123 accumulation in human mdr1 transfected L5178 mouse T-cell lymphoma cells (flow cytometry); type: cell-based; conditions: for Multidrug resistance reversing effect (in words): 4 and 40 μg/mL, at higher concentration multiple of fluorescence activity of Verapamil; for Vrel = effect related to Verapamil: Verapamil at 10 μg/ml; for R = ratio of fluorescence and activity / R (activity ratio, fluorescence): rhodamine 123; for R: Table 4 concentration series; for Multidrug resistance reversing effect at lower concentrations (in words): lower concentration (4 μg/mL), similar values at higher concentration, indicating saturation
Procedure: L5178 mouse T-cell lymphoma cells were transfected with pHa MDR1/A retrovirus, by the method as described by J. L. Weaver [J. L. Weaver, G. Szabó, P. S. Pine, M. M. Gottesmann, S. Goldenberg and A. Aszalos: The effect of ion channel blockers, immunosuppressive agents and other drugs on the activity of the multidrug transporter. Int. […] Mdr-1-expressing cell lines were selected by culturing the transfected cells with 60 ng/mL of colchicine to maintain the expression of the MDR phenotype. L5178 (parent) mouse T-cell lymphoma cells and the human mdr1 transfected subline were cultured in McCoy's 5A medium supplemented with 10% by mass of heath-inactivated horce serum, L-glutamine and antibiotics. Both cell lines were cultured at 37° C. The mouse lymphoma cell line was maintained in a 5% CO2 atmosphere.
The assays were carried out by the method as described by J. Molnár et al. [J. Molnár, I. Mucsi, J. Nacsa, A. Hevér, N. Gyémánt, K. Ugocsai, P. Hegyes, S. Kiessig, D. Gaal, H. Lage and A. Varga: New silicon compounds as resistance modifiers against multidrug-resistant cells. […] The cell density was set to a value of 2×10^6/mL, then the cells were resuspended in a serum-free McCoy's 5A medium and divided in aliquots of 0.5 mL in Eppendorf centrifuge tubes. The tested compounds were added in different concentrations to different volumes (2.0-20.0 μL) of 1.0-10.0 mg/mL stock solutions and the samples were incubated for 10 minutes at room temperature. […] The fluorescence of the cell population was measured with a Beckton Dickinson FACScan flow cytometer. […] The percentage value of the mean fluorescence intensity was calculated for the treated MDR and for the parental cell lines as compared with the values obtained with the untreated cells. The activity ratio (R) was calculated on the basis of the measured fluorescence values by the following equation: […]

melting point: 109 to 112 °C
SMILES: CCOC(=O)[C@H]1C[C@H]2C[C@@H]([C@H]1N(Cc1ccccc1)C(=S)Nc1cccc(OC)c1)C2(C)C [Compound 47, (1R,2R,3S,5R)-1-Benzyl-1-(3-Ethoxycarbonyl-6,6-Dimethylbicyclo[3.1.1]Heptan-2-yl)-3-(3-Methoxyphenyl)-Thiourea]
Survival (%) [c = 128 μM] [1]: 97.7%
Effect in concentration series (in words) ([2]; 0.04, 0.08, 0.4, 0.8 and 4 μg/mL): Dose-dependence was observed
Multidrug resistance reversing effect (in words) [2]: significant dose-dependent effect
Vrel = effect related to Verapamil ([2]; Table 3, 4 μg/ml): 3.02
R = ratio of fluorescence and activity ([2]; Table 3, 4 μg/ml): 34.76
Vrel = effect related to Verapamil ([2]; Table 3, 40 μg/ml): 3.07
R = ratio of fluorescence and activity ([2]; Table 3, 40 μg/ml): 35.35
R ([2]; 0.04 μg/ml): 1.44
R ([2]; 0.08 μg/ml): 1.60
R ([2]; 0.4 μg/ml): 6.03
R ([2]; 0.8 μg/ml): 7.16
R ([2]; 4 μg/ml): 35.20
Concentration sufficient for a significant P-glycoprotein-inhibiting effect ([2]; concentration series 0.04-4 μg/mL): 0.4 µg/mL
Multidrug resistance reversing effect at lower concentrations (in words) [2]: considerable multidrug resistance reversing effect

melting point: 118 to 120 °C
SMILES: CCOC(=O)[C@@H]1C[C@H]2C[C@@H]([C@H]1NC(=S)Nc1cccc(OC)c1)C2(C)C [Compound 49, (1R,2R,3R,5R)-1-(3-Ethoxycarbonyl-6,6-Dimethylbicyclo[3.1.1]Heptan-2-yl)-3-(3-Methoxyphenyl)-Thiourea]
Survival (%) [c = 128 μM] [1]: 250.9%
Multidrug resistance reversing effect (in words) [2]: significant dose-dependent effect
Vrel = effect related to Verapamil ([2]; Table 2, 4 μg/ml): 0.56
R (activity ratio, fluorescence) ([2]; Table 2, 4 μg/ml): 2.77
Vrel = effect related to Verapamil ([2]; Table 2, 40 μg/ml): 5.71
R (activity ratio, fluorescence) ([2]; Table 2, 40 μg/ml): 28.07

melting point: 167 to 169 °C
SMILES: CCOC(=O)[C@@H]1C[C@H]2C[C@@H]([C@H]1NC(=O)Nc1ccc(Cl)cc1)C2(C)C [Compound 50, (1R,2R,3R,5R)-1-(3-Ethoxycarbonyl-6,6-Dimethylbicyclo[3.1.1]Heptan-2-yl)-3-(4-Chlorophenyl)-Urea]
Survival (%) [c = 128 μM] [1]: 167.6%
Multidrug resistance reversing effect (in words) [2]: significant dose-dependent effect
Vrel = effect related to Verapamil ([2]; Table 3, 4 μg/ml): 0.16
R = ratio of fluorescence and activity ([2]; Table 3, 4 μg/ml): 1.87
Vrel = effect related to Verapamil ([2]; Table 3, 40 μg/ml): 3.70
R = ratio of fluorescence and activity ([2]; Table 3, 40 μg/ml): 42.58

melting point: 110 to 111 °C
SMILES: CCOC(=O)[C@@H]1C[C@H]2C[C@@H]([C@H]1N(Cc1ccccc1)C(=S)Nc1cccc(OC)c1)C2(C)C [Compound 52, (1R,2R,3R,5R)-1-Benzyl-1-(3-Ethoxycarbonyl-6,6-Dimethylbicyclo[3.1.1]-Heptan-2-yl)-3-(3-Methoxyphenyl)-Thiourea]
Survival (%) [c = 128 μM] [1]: 113.0%
Vrel = effect related to Verapamil ([2]; Table 3, 4 μg/ml): 1.90
R = ratio of fluorescence and activity ([2]; Table 3, 4 μg/ml): 21.87
Vrel = effect related to Verapamil ([2]; Table 3, 40 μg/ml): 2.13
R = ratio of fluorescence and activity ([2]; Table 3, 40 μg/ml): 24.44
Multidrug resistance reversing effect at lower concentrations (in words) [2]: considerable multidrug resistance reversing effect
